Assay results taken from patent US11168073B2, “3,3-difluoroallylamines or salts thereof and pharmaceutical compositions comprising the same” (YUHAN CORPORATION, priority 2018, dated 2021).
Structures can show the parent of a compound that is named as a salt. Where two headings read alike, the source gives them in different places.

Assays:
Assay type in all cases: biochemical
recombinant human VAP-1 = target: T1, recombinant human VAP-1 (Homo sapiens, UniProt Q16853); experiment: Activity evaluation on recombinant human VAP-1 (Amplex Red/HRP-coupled hydrogen peroxide assay, benzylamine substrate); conditions: read-out: Inhibitory Activity (IC50, nM) human VAP-1
T1 construct: purchased R&D systems
T1 sequence (Q16853 1-763): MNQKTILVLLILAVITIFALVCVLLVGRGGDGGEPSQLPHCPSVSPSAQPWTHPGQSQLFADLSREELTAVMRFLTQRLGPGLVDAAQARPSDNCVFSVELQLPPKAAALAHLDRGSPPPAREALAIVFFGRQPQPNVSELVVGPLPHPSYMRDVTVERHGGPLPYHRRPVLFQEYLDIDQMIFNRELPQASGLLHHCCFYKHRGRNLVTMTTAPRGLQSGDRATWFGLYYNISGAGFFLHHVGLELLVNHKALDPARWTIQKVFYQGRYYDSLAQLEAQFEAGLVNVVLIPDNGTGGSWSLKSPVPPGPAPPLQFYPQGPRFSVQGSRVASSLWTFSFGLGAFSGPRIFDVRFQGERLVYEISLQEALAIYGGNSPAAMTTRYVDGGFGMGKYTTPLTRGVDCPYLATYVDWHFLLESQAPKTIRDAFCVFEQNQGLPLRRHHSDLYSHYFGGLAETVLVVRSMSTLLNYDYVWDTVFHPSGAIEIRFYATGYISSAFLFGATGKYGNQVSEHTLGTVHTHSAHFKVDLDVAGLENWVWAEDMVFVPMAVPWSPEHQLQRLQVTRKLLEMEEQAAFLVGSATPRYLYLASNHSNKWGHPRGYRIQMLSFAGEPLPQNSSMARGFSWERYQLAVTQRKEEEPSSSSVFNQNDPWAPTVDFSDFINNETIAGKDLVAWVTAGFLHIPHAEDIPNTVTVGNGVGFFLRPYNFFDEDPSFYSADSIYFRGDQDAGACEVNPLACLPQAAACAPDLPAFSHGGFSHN
Outline: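 Hydrogen peroxide from benzylamine (1 mM) oxidation by human recombinant VAP-1 detected via HRP-coupled Amplex Red (200 uM) fluorescence, kinetic over 1–2 h. Enzyme and compound preincubated 30 min at 37 °C, pH 7.4 phosphate; 8-point dose response, signal-rate decrease versus DMSO control fitted to four-parameter logistic for IC50.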

[1] = target: T2, recombinant human MAO-A (monoamine oxidase-A) (Homo sapiens, UniProt P21397); experiment: Activity evaluation on recombinant human MAO-A (Amplex Red/HRP-coupled assay, 0.5 mM tyramine substrate); conditions: read-out: Inhibitory Activity (IC50, nM) MAO-A
T2 construct: purchased Sigma-Aldrich
T2 sequence (P21397 1-527): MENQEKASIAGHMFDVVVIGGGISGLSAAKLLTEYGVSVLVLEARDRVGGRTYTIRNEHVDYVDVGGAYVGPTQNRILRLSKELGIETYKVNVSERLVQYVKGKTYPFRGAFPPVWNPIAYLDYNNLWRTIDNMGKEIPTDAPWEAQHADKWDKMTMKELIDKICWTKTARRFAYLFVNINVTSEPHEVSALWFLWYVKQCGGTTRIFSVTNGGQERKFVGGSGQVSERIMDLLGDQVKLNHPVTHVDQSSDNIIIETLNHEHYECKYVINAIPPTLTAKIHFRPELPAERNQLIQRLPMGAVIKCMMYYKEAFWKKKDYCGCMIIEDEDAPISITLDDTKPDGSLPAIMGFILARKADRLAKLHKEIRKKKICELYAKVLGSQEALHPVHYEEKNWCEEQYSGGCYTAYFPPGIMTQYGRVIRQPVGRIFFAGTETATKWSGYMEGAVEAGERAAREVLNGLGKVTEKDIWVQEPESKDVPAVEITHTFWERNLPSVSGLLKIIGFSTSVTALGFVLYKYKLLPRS
Outline: (§1)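 Each oxidase is tested with its own substrate: MAO-A with 0.5 mM tyramine, MAO-B with 1 mM benzylamine, DAO with 1 mM putrescine. After 30 min enzyme-compound preincubation at 37 °C, Amplex Red (200 uM) plus HRP (1 U/mL) reports H2O2 as fluorescence; IC50 is fitted from eight-point curves.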

[2] = target: T3, recombinant human MAO-B (monoamine oxidase-B) (Homo sapiens, UniProt P27338); experiment: Activity evaluation on recombinant human MAO-B (Amplex Red/HRP-coupled assay, 1 mM benzylamine substrate); conditions: read-out: Inhibitory Activity (IC50, nM) MAO-B
T3 construct: purchased Sigma-Aldrich
T3 sequence (P27338 1-520): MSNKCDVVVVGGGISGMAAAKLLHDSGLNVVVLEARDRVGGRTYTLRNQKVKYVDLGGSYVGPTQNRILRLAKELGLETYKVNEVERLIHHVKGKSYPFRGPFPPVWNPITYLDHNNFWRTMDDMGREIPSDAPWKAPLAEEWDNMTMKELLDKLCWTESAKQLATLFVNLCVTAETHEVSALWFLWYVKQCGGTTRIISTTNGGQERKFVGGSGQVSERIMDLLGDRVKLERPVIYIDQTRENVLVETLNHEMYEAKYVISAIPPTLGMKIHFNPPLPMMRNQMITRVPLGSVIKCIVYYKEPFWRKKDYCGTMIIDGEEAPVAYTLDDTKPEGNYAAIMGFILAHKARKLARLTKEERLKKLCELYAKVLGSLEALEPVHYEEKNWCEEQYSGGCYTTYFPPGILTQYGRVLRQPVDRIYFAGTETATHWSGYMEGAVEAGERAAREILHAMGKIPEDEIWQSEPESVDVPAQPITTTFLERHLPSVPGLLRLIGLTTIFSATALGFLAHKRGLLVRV
Outline: as §1

[3] = target: T4, recombinant human DAO (diamine oxidase) (Homo sapiens, UniProt P19801); experiment: Activity evaluation on recombinant human DAO (Amplex Red/HRP-coupled assay, 1 mM putrescine substrate); conditions: read-out: Inhibitory Activity (IC50, nM) DAO
T4 construct: purchased R&D systems
T4 sequence (P19801 20-751): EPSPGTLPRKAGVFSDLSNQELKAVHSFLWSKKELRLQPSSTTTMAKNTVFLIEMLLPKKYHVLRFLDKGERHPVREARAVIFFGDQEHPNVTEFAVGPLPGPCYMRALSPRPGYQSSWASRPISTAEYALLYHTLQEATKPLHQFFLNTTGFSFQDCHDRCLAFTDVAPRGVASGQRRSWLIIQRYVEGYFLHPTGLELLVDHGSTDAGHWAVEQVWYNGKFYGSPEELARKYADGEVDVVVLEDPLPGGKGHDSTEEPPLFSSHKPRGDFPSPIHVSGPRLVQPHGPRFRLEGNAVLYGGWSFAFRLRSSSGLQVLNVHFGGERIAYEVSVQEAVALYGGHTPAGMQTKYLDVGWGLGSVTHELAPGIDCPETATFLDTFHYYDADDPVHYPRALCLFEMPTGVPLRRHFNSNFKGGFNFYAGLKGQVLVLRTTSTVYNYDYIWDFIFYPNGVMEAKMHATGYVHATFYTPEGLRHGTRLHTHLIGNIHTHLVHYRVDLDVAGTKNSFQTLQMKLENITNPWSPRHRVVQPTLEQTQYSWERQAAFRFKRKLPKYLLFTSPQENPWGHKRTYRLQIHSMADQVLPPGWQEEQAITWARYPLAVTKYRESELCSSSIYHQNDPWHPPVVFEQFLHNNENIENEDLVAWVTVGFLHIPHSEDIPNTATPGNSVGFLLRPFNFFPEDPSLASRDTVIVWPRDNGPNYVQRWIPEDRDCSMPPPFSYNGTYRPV
Outline: as §1

[4] = recombinant human VAP-1, 30 min preincubation at 37° C., 1 mM benzylamine
[5] = recombinant human VAP-1, benzylamine substrate

Row | SMILES | IC50 (recombinant human VAP-1; [4]) [nM] | IC50 ([1]; 0.5 mM tyramine) [nM] | IC50 ([2]; 1 mM benzylamine) [nM] | IC50 ([3]; 1 mM putrescine) [nM] | IC50 (recombinant human VAP-1; [5]) [nM] | IC50 ([1]; 0.5 mM tyramine substrate) [nM] | IC50 ([2]; 1 mM benzylamine substrate) [nM] | IC50 ([3]; 1 mM putrescine substrate) [nM]
1 | CN1C(=O)CCc2cc(-c3csc(Cn4cnn(CC(CN)=C(F)F)c4=O)c3)ccc21 [Example 152, 6-[5-[[1-[2-(aminomethyl)-3,3-difluoro-allyl]-5-oxo-1,2,4-triazol-4-yl]methyl]-3-thienyl]-1-methyl-3,4-dihydroquinolin-2-one Trifluoroacetate] | 0.2 | > 100000 | 13400 | 3500 |  |  |  | 
2 | CN(C)c1ccc(-c2ccc(CCn3cnn(CC(CN)=C(F)F)c3=O)s2)cn1 [Example 176, 2-[2-(aminomethyl)-3,3-difluoro-allyl]-4-[2-[5-[6-(dimethylamino)-3-pyridyl]-2-thienyl]ethyl]-1,2,4-triazol-3-one Trifluoroacetate] | 0.5 | > 100000 | > 100000 | 1100 |  |  |  | 
3 | CC(=O)c1ccc(-c2cnc(-n3cnn(CC(CN)=C(F)F)c3=O)c(C)c2)s1 [Example 231, 4-[5-(5-acetyl-2-thienyl)-3-methyl-2-pyridyl]-2-[2-(aminomethyl)-3,3-difluoro-allyl]-1,2,4-triazol-3-one Trifluoroacetate] |  |  |  |  | 0.2 | 40400 | 1950 | 3910
4 | NCC(Cn1ncn(Cc2cc(-c3ccc4c(c3)COC(=O)N4)cs2)c1=O)=C(F)F [Example 191, 6-[5-[[1-[2-(aminomethyl)-3,3-difluoro-allyl]-5-oxo-1,2,4-triazol-4-yl]methyl]-3-thienyl]-1,4-dihydro-3,1-benzoxazin-2-one Trifluoroacetate] |  |  |  |  | 0.3 | > 100000 | 44000 | 4200
5 | NCC(Cn1ncn(Cc2ccc(C#Cc3cnc4c(c3)OCC(=O)N4)s2)c1=O)=C(F)F [Example 170, 7-[2-[5-[[1-[2-(aminomethyl)-3,3-difluoro-allyl]-5-oxo-1,2,4-triazol-4-yl]methyl]-2-thienyl]ethynyl]-4H-pyrido[3,2-b][1,4]oxazin-3-one Trifluoroacetate] | 0.8 | > 100000 | 14000 | > 10000 |  |  |  | 
6 | Cc1cc(-c2cnn(C(F)F)c2)cnc1-n1cnn(CC(CN)=C(F)F)c1=O [Example 251, 2-[2-(aminomethyl)-3,3-difluoro-allyl]-4-[5-[1-(difluoromethyl)pyrazol-4-yl]-3-methyl-2-pyridyl]-1,2,4-triazol-3-one Trifluoroacetate] |  |  |  |  | 1.5 | > 100000 | 18000 | 19000
7 | NCC(Cn1ncn(-c2ccnc(-c3ccc4c(c3)OCO4)c2)c1=O)=C(F)F [Example 64, 2-[2-(aminomethyl)-3,3-difluoro-allyl]-4-[2-(1,3-benzodioxol-5-yl)-4-pyridyl]-1,2,4-triazol-3-one Trifluoroacetate] | 0.4 | > 100000 | 480 | 270 |  |  |  | 
8 | CN(C)c1cc(-c2cccc(-n3cnn(CC(CN)=C(F)F)c3=O)n2)ccc1F [Example 217, 2-[2-(aminomethyl)-3,3-difluoro-allyl]-4-[6-[3-(dimethylamino)-4-fluoro-phenyl]-2-pyridyl]-1,2,4-triazol-3-one Trifluoroacetate] |  |  |  |  | 1.1 | > 100000 | 13700 | 1500
9 | CS(=O)(=O)c1ccc(-c2ccc3sc(Cn4cnn(CC(CN)=C(F)F)c4=O)cc3c2)cc1 [Example 205, 2-[2-(aminomethyl)-3,3-difluoro-allyl]-4-[[5-(4-methylsulfonylphenyl)benzothiophen-2-yl]methyl]-1,2,4-triazol-3-one Trifluoroacetate] |  |  |  |  | 0.8 | > 100000 | > 100000 | 7670
10 | Cc1c(-c2cnn(C(F)F)c2)cccc1-n1cnn(CC(CN)=C(F)F)c1=O [Example 261, 2-[2-(aminomethyl)-3,3-difluoro-allyl]-4-[3-[1-(difluoromethyl)pyrazol-4-yl]-2-methyl-phenyl]-1,2,4-triazol-3-one Trifluoroacetate] |  |  |  |  | 6.5 | > 100000 | > 100000 | > 100000
